Reference: paper PMC3914206

Assays:
panel of 442 kinases [1] = target: T1, panel of 442 kinases (Homo sapiens, UniProt Q8TD19); type: binding; set-up: KINOMEscan: ABL1(F317L)-phosphorylated / KINOMEscan: ABL1(H396P)-nonphosphorylated / KINOMEscan: ABL1(H396P)-phosphorylated / KINOMEscan: ABL1(M351T)-phosphorylated / KINOMEscan: ABL1(T315I)-phosphorylated / KINOMEscan: ABL1-nonphosphorylated / KINOMEscan: ABL1-phosphorylated / KINOMEscan: ACVR2A / KINOMEscan: ACVR2B / KINOMEscan: ADCK3 / KINOMEscan: ADCK4 / KINOMEscan: AKT1 / KINOMEscan: AKT3 / KINOMEscan: ALK / KINOMEscan: ARK5 / KINOMEscan: AURKA / KINOMEscan: AURKC / KINOMEscan: BIKE / KINOMEscan: BMPR1A / KINOMEscan: BMPR1B / KINOMEscan: BMX / KINOMEscan: BRK / KINOMEscan: BRSK1 / KINOMEscan: BRSK2 / KINOMEscan: CAMK1 / KINOMEscan: CAMK1D / KINOMEscan: CAMK1G / KINOMEscan: CAMK2A / KINOMEscan: CAMK2B / KINOMEscan: AAK1 / KINOMEscan: CAMK2D / KINOMEscan: CAMK2G / KINOMEscan: ABL1(F317I)-nonphosphorylated / KINOMEscan: ABL1(F317I)-phosphorylated / KINOMEscan: ABL1(F317L)-nonphosphorylated: unit: % Ctrl; settings: Compound Concentration 10 µM
T1 construct: purchased KINOMEscan
T1 sequence (Q8TD19 1-979): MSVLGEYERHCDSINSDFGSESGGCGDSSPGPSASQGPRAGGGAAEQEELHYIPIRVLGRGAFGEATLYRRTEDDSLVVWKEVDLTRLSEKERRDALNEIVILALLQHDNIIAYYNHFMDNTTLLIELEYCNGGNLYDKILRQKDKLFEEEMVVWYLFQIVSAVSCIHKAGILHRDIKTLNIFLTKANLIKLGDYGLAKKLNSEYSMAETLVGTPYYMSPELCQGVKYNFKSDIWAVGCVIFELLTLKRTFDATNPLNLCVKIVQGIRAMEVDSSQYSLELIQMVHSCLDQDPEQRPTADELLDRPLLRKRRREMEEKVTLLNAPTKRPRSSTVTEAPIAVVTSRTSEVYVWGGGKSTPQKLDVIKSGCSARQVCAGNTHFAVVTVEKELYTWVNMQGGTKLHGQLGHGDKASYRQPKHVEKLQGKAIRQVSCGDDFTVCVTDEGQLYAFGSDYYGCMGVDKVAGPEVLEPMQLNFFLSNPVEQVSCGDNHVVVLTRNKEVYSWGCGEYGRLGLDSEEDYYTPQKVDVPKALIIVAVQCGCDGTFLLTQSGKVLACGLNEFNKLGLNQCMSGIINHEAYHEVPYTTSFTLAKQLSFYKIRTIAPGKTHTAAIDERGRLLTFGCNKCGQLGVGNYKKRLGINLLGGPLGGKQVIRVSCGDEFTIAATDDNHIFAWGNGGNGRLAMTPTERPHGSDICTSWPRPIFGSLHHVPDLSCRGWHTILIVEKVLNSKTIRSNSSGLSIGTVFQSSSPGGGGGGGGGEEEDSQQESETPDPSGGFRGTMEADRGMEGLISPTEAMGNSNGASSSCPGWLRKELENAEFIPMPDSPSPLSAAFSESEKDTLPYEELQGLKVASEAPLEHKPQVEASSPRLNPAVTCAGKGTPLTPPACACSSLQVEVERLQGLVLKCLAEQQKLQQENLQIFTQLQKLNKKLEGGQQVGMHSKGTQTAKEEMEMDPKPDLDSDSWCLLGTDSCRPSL
From the text: (§1) We assessed the selectivity of members of this scaffold using the KINOMEscan methodology across a near comprehensive panel of 442 kinases [[18,27]].

panel of 442 kinases [2] = target: T2, panel of 442 kinases (Homo sapiens, UniProt Q9UM73); type: binding; set-up: KINOMEscan: ABL1(F317L)-phosphorylated / KINOMEscan: ABL1(H396P)-nonphosphorylated / KINOMEscan: ABL1(H396P)-phosphorylated / KINOMEscan: ABL1(M351T)-phosphorylated / KINOMEscan: ABL1(T315I)-phosphorylated / KINOMEscan: ABL1-nonphosphorylated / KINOMEscan: ABL1-phosphorylated / KINOMEscan: ACVR2A / KINOMEscan: ACVR2B / KINOMEscan: ADCK3 / KINOMEscan: ADCK4 / KINOMEscan: AKT1 / KINOMEscan: AKT3 / KINOMEscan: ALK / KINOMEscan: ARK5 / KINOMEscan: AURKA / KINOMEscan: AURKC / KINOMEscan: BIKE / KINOMEscan: BMPR1A / KINOMEscan: BMPR1B / KINOMEscan: BMX / KINOMEscan: BRK / KINOMEscan: BRSK1 / KINOMEscan: BRSK2 / KINOMEscan: CAMK1 / KINOMEscan: CAMK1D / KINOMEscan: CAMK1G / KINOMEscan: CAMK2A / KINOMEscan: CAMK2B / KINOMEscan: AAK1 / KINOMEscan: CAMK2D / KINOMEscan: CAMK2G / KINOMEscan: ABL1(F317I)-nonphosphorylated / KINOMEscan: ABL1(F317I)-phosphorylated / KINOMEscan: ABL1(F317L)-nonphosphorylated: unit: % Ctrl; settings: Compound Concentration 10 µM
T2 construct: purchased KINOMEscan
T2 sequence (Q9UM73 19-1620): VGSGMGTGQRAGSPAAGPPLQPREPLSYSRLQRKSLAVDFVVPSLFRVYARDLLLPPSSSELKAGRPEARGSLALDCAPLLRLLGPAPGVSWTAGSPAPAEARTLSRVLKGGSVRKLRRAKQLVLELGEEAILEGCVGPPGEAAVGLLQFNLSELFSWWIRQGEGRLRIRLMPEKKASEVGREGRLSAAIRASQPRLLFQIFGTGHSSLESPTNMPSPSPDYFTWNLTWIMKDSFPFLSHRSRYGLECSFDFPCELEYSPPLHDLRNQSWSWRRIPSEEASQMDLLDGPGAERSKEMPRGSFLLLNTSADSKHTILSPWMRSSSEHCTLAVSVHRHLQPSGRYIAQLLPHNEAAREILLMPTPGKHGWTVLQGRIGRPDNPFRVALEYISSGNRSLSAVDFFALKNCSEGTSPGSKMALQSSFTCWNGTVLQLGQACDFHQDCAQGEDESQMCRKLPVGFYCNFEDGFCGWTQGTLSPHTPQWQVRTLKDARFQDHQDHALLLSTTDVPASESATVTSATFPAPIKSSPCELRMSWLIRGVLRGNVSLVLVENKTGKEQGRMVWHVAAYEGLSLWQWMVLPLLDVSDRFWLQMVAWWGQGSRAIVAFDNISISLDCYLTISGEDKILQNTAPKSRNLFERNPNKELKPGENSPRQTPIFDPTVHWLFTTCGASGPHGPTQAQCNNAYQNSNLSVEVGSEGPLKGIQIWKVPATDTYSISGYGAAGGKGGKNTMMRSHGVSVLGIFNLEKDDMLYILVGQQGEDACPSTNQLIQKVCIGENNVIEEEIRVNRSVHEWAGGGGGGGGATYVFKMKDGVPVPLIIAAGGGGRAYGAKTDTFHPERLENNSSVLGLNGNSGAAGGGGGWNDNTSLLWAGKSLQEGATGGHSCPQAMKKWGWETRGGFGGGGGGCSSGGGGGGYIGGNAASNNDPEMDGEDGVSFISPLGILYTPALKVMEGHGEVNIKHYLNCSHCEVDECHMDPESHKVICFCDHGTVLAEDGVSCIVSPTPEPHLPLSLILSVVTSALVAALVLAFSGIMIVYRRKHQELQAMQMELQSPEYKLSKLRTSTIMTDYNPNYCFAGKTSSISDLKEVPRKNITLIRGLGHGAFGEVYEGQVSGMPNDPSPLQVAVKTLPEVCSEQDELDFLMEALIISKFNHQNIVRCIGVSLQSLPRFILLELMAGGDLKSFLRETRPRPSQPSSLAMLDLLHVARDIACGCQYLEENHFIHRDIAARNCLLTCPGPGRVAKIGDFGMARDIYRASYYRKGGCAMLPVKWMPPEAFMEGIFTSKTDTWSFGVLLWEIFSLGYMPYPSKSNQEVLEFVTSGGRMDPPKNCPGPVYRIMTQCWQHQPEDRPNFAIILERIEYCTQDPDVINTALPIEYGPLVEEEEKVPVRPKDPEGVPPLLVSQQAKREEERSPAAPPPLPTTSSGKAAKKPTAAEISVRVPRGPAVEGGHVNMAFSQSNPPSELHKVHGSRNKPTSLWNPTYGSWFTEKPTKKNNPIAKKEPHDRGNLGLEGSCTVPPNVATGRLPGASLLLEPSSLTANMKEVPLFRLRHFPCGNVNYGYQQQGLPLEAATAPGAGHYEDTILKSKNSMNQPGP
From the text: as §1

| SMILES | KINOMEscan: NEK9 (panel of 442 kinases [1]) | KINOMEscan: ALK (panel of 442 kinases [2]) |
| --- | --- | --- |
| COc1cc(C(=O)N2CCC(N3CCN(C)CC3)CC2)ccc1Nc1ncc2c(n1)N1CCc3cccc(c31)C(=O)N2C [Compound 24] | 87 | 31 |
| CCOc1cc(C(=O)N2CCC(N3CCN(C)CC3)CC2)ccc1Nc1ncc2c(n1)N(C1CCCC1)c1ccccc1C(=O)N2C [Compound 26] | 100 | 21 |
| COc1cc(C(=O)N2CCC(N3CCN(C)CC3)CC2)ccc1Nc1ncc2c(n1)N(C1CCCC1)c1ccccc1C(=O)N2C [Compound 25, 11-cyclopentyl-2-((2-methoxy-4-(4-(4-methylpiperazin-1-yl)piperidine-1-carbonyl)phenyl)amino)-5-methyl-5H-benzo[e]pyrimido[5,4-b][1,4]diazepin-6(11H)-one] | 98 | 15 |
| COc1cc(C(=O)N2CCC(N3CCN(C)CC3)CC2)ccc1Nc1ncc2c(n1)N(C)c1ccccc1C(=O)N2C [15 (LRRK2-IN-1)] | 100 | 13 |
